In patent US4570005A, “Process for the preparation of 2-arylpropyl ether or thioether derivatives” (priority 1980, dated 1986):
Where two headings read alike, the source gives them in different places.

Assays:
[1] = tested on: tobacco cutworm; experiment: Test 2: Tobacco Cutworm Larva Dipping Test, mortality after 24 hours; type: in vivo; details: 24 hours
Protocol: (§1) To a mixture of 20 parts of the compound of the present invention and 20 parts of Sorpol SM-200 (registered tradename for the product supplied by Toho Chemical Industrial Co., Ltd.) was added 60 parts of xylol, and the mixture was suffciently blended. The obtained emulsifiable concentrate was diluted at a predetermined concentration with distilled water, and the obtained dilution was used.
A dilution having a chemical concentration of 100 or 20 ppm was prepared in the same manner as described in Test 1.
Second-instar and fifth-instar larvae of tobacco cutworm were dipped in the dilution for 5 seconds, and the excessive dilution was removed by a filter paper. Then, the larvae were set free in a plastic cup and an artificial diet was supplied thereto. The cup was allowed to stand still in a thermostat chamber maintained at 25° C. After 24 hours, the numbers of the killed and living larvae were counted and the mortality was calculated. The test was made on three cups and the result was expressed by an average value.

[2] = tested on: tobacco cutworm; experiment: Test 1: Effect on Tobacco Cutworm (leaf immersion), mortality after 24 hours; type: in vivo; details: second-instar larvae, 25° C
Protocol: as §1
An emulsifiable concentrate of a test compound prepared according to the method described in Formulation Example 1 was diluted to a concentration of 100 or 20 ppm. Sweet-potato leaves were immersed in the dilution for 10 seconds, air-dried and placed in a plastic cup having a diameter of 10 cm. Then second-instar larvae of tobacco cutworm were set free in the cup. The cup was allowed to stand still in a thermostat chamber maintained at 25° C. After 24 hours, the numbers of killed and living larvae were counted and the mortality was calculated. The obtained result was expressed by an average value obtained from the mortality calculated in three test cups.

[3] = tested on: sensitive green rice leafhopper (collected at Chigasaki); experiment: whole plant or invertebrate; type: in vivo; details: Nephotettix cincticeps, sensitive female adults, 24 hours, read-out: Mortality (%), Green Rice Leafhopper Collected at Chigasaki
In short: (§2)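 Ten adult females per pot, either resistant (Nakagawara) or sensitive (Chigasaki), were caged on air-dried rice seedlings (2–3 leaves) sprayed at 3 ml/pot with 100 or 20 ppm of an emulsifiable concentrate dilution. Dead and living insects were counted after 24 hours; mortality is the mean of three pots.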

[4] = Test 8: Fish Toxicity; type: in vivo; details: carp, water; concentration at which 1/2 of the test fishes were killed within 48 hours; read-out: Fish Toxicity, TLm48
Protocol: A water tank having a width of 60 cm, a length of 30 cm and a height of 40 cm was filled with water, and 10 yearling carps having a body length of about 5 cm were set free in the tank and adapted to the environment in the tank. A test compound was applied so that the concentration in water was 10, 1 or 0.1 ppm. After 48 hours, the numbers of killed and living carps were counted and the influences on the fishes were examined.

[5] = Test 9: Toxicity Test (acute oral toxicity, mice); details: mouse, in vivo, po
Protocol: A predetermined amount of a solution or suspension of a test compound in corn oil was orally administered to male mice having a body weight of 19 to 23 g (0.2 ml per 10 g of the body weight). After 7 days, the number of killed mice was counted and the influences on the mice were examined.

[6] = tested on: diamond back moth; experiment: Test 4: Effect on Diamond Back Moth; type: in vivo; details: Plutella, third-instar larvae, 24 hours, read-out: Mortality (%)
Protocol: as §1
Cabbage leaves were spread in a plastic cup, and 10 third-instar larvae of diamond back moth were set free in the cup.
A chemical dilution having a concentration of 100 or 20 ppm, prepared in the same manner as described in Test 1, was applied from an applicator at a rate of 3 ml per cup.
After scattering of the chemical dilution, the cup was covered, and after 24 hours, the numbers of killed and living larvae were counted and the mortality was calculated. The test was made on three cups and the average value was calculated.

[7] = tested on: resistant green rice leafhopper (collected at Nakagawara); experiment: Test 3: Effect on Resistant Green Rice Leafhopper (collected at Nakagawara); type: in vivo, Nephotettix cincticeps Uhler (Green rice leafhopper); details: Nephotettix cincticeps, 24 h, read-out: Mortality (%), Green Rice Leafhopper Collected at Nakagawara
In short: as §2

[8] = tested on: green peach aphid; experiment: Test 5: Effect on Green Peach Aphid; type: in vivo; details: Myzus persicae, read-out: Insecticidal Activity
Protocol: as §1
Seedlings (having 3 to 4 leaves) of an eggplant grown on a pot were inoculated with green peach aphids and the insects were allowed to grow. The number of the insects was counted. A chemical dilution having a concentration of 100 ppm, prepared in the same manner as described in Test 1, was applied with a spray gun at a rate of 10 ml per pot. Then, the pot was placed in a glass green house. After 24 hours, the number of living insects was counted and the mortality was calculated.
The test was made on three pots, and the average value was calculated. In Table 6, mark "A" indicates a mortality higher than 95%, mark "B" indicates a mortality of 80 to 95%, mark "C" indicates a mortality of 50 to 80%, and mark "D" indicates a mortality lower than 50%.

[9] = tested on: German cockroach; experiment: Test 7: Effect on German Cockroach; type: in vivo; details: Blattella germanica, male adults, agonized and killed after 24 hours, read-out: Mortality (%); for mortality at 10 mg/m2: 10 mg/m^2; for mortality at 50 mg/m2: 50 mg/m^2
Protocol: as §1
The bottom face of a high Petri dish having a diameter of 9 cm and a height of 9 cm was treated with 50 or 10 mg/m^2 of a test compound and the dish was air-dried. In order to prevent the adults from escaping from the dish, the inner wall of the dish was treated with butter. Then, 10 male adults of German cockroach were set free in each dish, and the dish was placed in a thermostat chamber maintained at 25° C. After 24 hours, the number of agonized and killed adults was counted. The test was made on two dishes and the average value was calculated.

[10] = fifth-instar larvae, read-out: Motality (%), Fifth-Instar Larvae
[11] = second-instar larvae, read-out: Motality (%), Second-Instar Larvae
[12] = 100 ppm, mortality class, 24 hours

Row | Compound | mortality at 20 ppm [1, 10] | mortality at 20 ppm [1, 11] | mortality at 100 ppm [1, 10] | mortality at 100 ppm [1, 11] | mortality at 20 ppm [2] | mortality at 100 ppm [2] | mortality at 20 ppm [3] | mortality at 100 ppm [3] | LC50 at 48 h [4] | LD50 at 168 h [5] | mortality at 20 ppm [6] | mortality at 100 ppm [6] | mortality at 20 ppm [7] | mortality at 100 ppm [7] | mortality at 100 ppm [8, 12] | mortality at 10 mg/m2 [9] | mortality at 50 mg/m2 [9] | mortality at 100 ppm ([8]; 24 h)
1 | CC(C)(COCc1cccc(Oc2ccc(Br)cc2)c1)c1ccc(Cl)cc1 [Compound 4, 3-(4-Bromophenoxy)benzyl 2-(4-chlorophenyl)-2-methylpropyl ether] | 70% | 90% | 80% | 90% | 95% | 100% | 50% | 100% | > 10 µg/mL | > 500 mg/kg | 100% | 100% | 70% | 100% | – | – | – | –
2 | Cc1ccc(C(C)(C)COCc2cccc(Oc3ccc(F)cc3)c2)cc1 [Compound 3, 3-(4-Fluorophenoxy)benzyl 2-(4-methylphenyl)-2-methylpropyl ether] | 60% | 70% | 70% | 90% | 83% | 100% | 100% | 100% | – | > 500 mg/kg | – | – | 100% | 100% | > 95% | – | – | –
3 | CC(C)(COCc1cccc(Oc2ccccc2)c1)c1ccc(F)cc1 [Compound 51, 3-Phenoxybenzyl 2-(4-fluorophenyl)-2-methylpropyl ether] | – | – | – | – | 100% | 100% | 100% | 100% | > 1 µg/mL | > 500 mg/kg | – | – | 100% | 100% | – | – | – | –
4 | COC(C)c1ccc(C(C)(C)COCc2cccc(Oc3ccccc3)c2)cc1 (stereo not shown) [Compound 86, 3-Phenoxybenzyl 2[4-(1-methoxyethyl)phenyl]-2-methylpropyl ether] | – | – | – | – | – | – | – | – | – | > 500 mg/kg | – | – | – | – | 80 to 95% | – | – | –
5 | CCOc1ccc(C(C)(C)COCc2cccc(Oc3ccccc3)c2)cc1Cl [Compound 78, 3-Phenoxybenzyl 2-(3-chloro-4-ethoxyphenyl)-2-methylpropyl ether] | – | – | – | – | 100% | 100% | 100% | 100% | – | > 500 mg/kg | 100% | 100% | 100% | 100% | > 95% | – | – | –
6 | C#Cc1ccc(C(C)(C)COCc2cccc(Oc3ccccc3)c2)cc1 [Compound 96, 3-Phenoxybenzyl 2-(4-ethynylphenyl)-2-methylpropyl ether] | – | – | – | – | – | – | 60% | 100% | – | > 500 mg/kg | – | – | 90% | 100% | 80 to 95% | – | – | –
7 | CC(C)(COCc1cccc(Oc2ccc(Br)cc2)c1)c1ccc(OC(F)F)cc1 [Compound 30, 3-(4-Bromophenoxy)benzyl 2-(4-difluoromethoxyphenyl)-2-methylpropyl ether] | – | – | – | – | 80% | 100% | 100% | 100% | > 1 µg/mL | > 500 mg/kg | 70% | 100% | 100% | 100% | – | – | – | –
8 | CCOc1ccc(C(C)(C)CSCc2cccc(Oc3ccccc3)c2)cc1 [Compound 95] | – | – | – | – | 100% | 100% | 100% | 100% | – | > 500 mg/kg | – | – | 100% | 100% | > 95% | – | – | –
9 | CC(C)(COCc1cccc(C(=O)c2ccccc2)c1)c1ccc(Cl)cc1 [Compound 22, 3-Benzoylbenzyl 2-(4-chlorophenyl)-2-methylpropyl ether] | – | – | – | – | – | – | 50% | 100% | > 10 µg/mL | > 500 mg/kg | – | – | 80% | 100% | – | 90% | 100% | –
10 | CCOc1ccc(C(C)(CC)COCc2cccc(Oc3ccccc3)c2)cc1 (stereo not shown) [Compound 103, 3-Phenoxybenzyl 2-(4-ethoxyphenyl)-2-ethylpropyl ether] | – | – | – | – | 100% | 100% | 100% | 100% | – | > 500 mg/kg | – | – | 100% | 100% | > 95% | – | – | –
11 | CC(C)(CSCc1cccc(Oc2ccc(Br)cc2)c1)c1ccc(Cl)cc1 [Compound 37] | – | – | – | – | 100% | 100% | 50% | 100% | > 10 µg/mL | > 500 mg/kg | 100% | 100% | 70% | 100% | – | – | – | –
12 | COP(=O)(NC(C)=O)SC (stereo not shown) [Comparative Compound (h), O,S-dimethyl N-acetylphosphoroamidothiolate, reference compound] | – | – | – | – | – | – | – | – | – | – | – | – | – | – | – | – | – | 80 to 95%
13 | CC(C)(COCc1cccc(Oc2ccccc2)c1)c1ccc2ccccc2c1 [Compound 31, 3-Phenoxybenzyl 2-(2-naphthyl)-2-methylpropyl ether] | – | – | – | – | – | – | 100% | 100% | > 10 µg/mL | > 500 mg/kg | – | – | 100% | 100% | – | 100% | 100% | –
14 | CCC(C)(COCc1cccc(Oc2ccc(F)cc2)c1)c1ccc(F)cc1 (stereo not shown) [Compound 2, 3-(4-fluorophenoxy)benzyl 2-(4-fluorophenyl)-2-methylbutyl ether] | – | – | – | – | 90% | 100% | 80% | 100% | > 1 µg/mL | > 500 mg/kg | 100% | 100% | 95% | 100% | – | – | – | –
